Measured values: PubChem BioAssay AID2060618 (Molecular Pharmacology Branch, DTP, NCI, 2025)
Values joined by “and” are separate entries in the source; they are usually repeats but may differ in a detail not shown here. Equal values may be shown once. Blank lines part the entries; values can stand above or below the molecule they belong to.

Tested on: 454973-116-R2-J3-PDC spheroids, percent test/control viability
Experiment: Anticancer human tumor 454973-116-R2-J3-PDC patient-derived pancreatic carcinoma cell line growth inhibition [CLK]
Settings: spheroids with HUVEC and MSC; for viability, T/C: stronger effect = lower value
Procedure, shortened: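 Multi-cell-type spheroids combined patient-derived tumor cells with HUVEC endothelial cells and human mesenchymal stem cells. Paired agents were dosed in half-log steps down from about clinical Cmax, or from 10 microM where Cmax was unknown.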

[1] = curve of first compound, second compound 0.0316 µM
[2] = curve of first compound, second compound 0.1 µM
[3] = curve of first compound, second compound 0.316 µM
[4] = curve of first compound, second compound 1 µM
[5] = curve of first compound, second compound 3.16 µM
[6] = curve of first compound, second compound 10 µM
[7] = second compound 0.0316 µM, first compound 0.0316 µM
[8] = second compound 0.0316 µM, first compound 0.1 µM
[9] = second compound 0.0316 µM, first compound 0.316 µM
[10] = second compound 0.0316 µM, first compound 1 µM
[11] = second compound 0.1 µM, first compound 0.0316 µM
[12] = second compound 0.1 µM, first compound 0.1 µM
[13] = second compound 0.1 µM, first compound 0.316 µM
[14] = second compound 0.1 µM, first compound 1 µM
[15] = second compound 0.316 µM, first compound 0.0316 µM
[16] = second compound 0.316 µM, first compound 0.1 µM
[17] = second compound 0.316 µM, first compound 0.316 µM
[18] = second compound 0.316 µM, first compound 1 µM
[19] = second compound 1 µM, first compound 0.0316 µM
[20] = second compound 1 µM, first compound 0.1 µM
[21] = second compound 1 µM, first compound 0.316 µM
[22] = second compound 1 µM, first compound 1 µM
[23] = second compound 3.16 µM, first compound 0.0316 µM
[24] = second compound 3.16 µM, first compound 0.1 µM
[25] = second compound 3.16 µM, first compound 0.316 µM
[26] = second compound 3.16 µM, first compound 1 µM
[27] = second compound 10 µM, first compound 0.0316 µM
[28] = second compound 10 µM, first compound 0.1 µM
[29] = second compound 10 µM, first compound 0.316 µM
[30] = second compound 10 µM, first compound 1 µM
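Note: spheroids exposed to compounds for 7 days before readout.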

IC50 [1]: < 0.00316 µM
IC50 [2]: < 0.00316 µM
IC50 [3]: < 0.00316 µM
IC50 [4]: < 0.00316 µM
IC50 [5]: < 0.00316 µM
IC50 [6]: < 0.00316 µM
SMILES: CCc1c2c(nc3ccc(O)cc13)-c1cc3c(c(=O)n1C2)COC(=O)[C@]3(O)CC + CNC(=O)c1ccc(Nc2nc(OC3CCCC3)c3c(-c4ccc5nc(C)oc5c4)c[nH]c3n2)c(OC)c1
viability, T/C (second compound 0.0316 µM, first compound 0.00316 µM): 27.4%
viability, T/C (second compound 0.0316 µM, first compound 0.01 µM): 16.7%
viability, T/C [7]: 12.8%
viability, T/C [8]: 5.45%
viability, T/C [9]: 4.91%
viability, T/C [10]: 1.19%
viability, T/C (second compound 0.1 µM, first compound 0.00316 µM): 21.7%
viability, T/C (second compound 0.1 µM, first compound 0.01 µM): 18.1%
viability, T/C [11]: 13.6%
viability, T/C [12]: 9.68%
viability, T/C [13]: 3.81%
viability, T/C [14]: 1.47%
viability, T/C (second compound 0.316 µM, first compound 0.00316 µM): 20.4%
viability, T/C (second compound 0.316 µM, first compound 0.01 µM): 17.1%
viability, T/C [15]: 10.5%
viability, T/C [16]: 6.75%
viability, T/C [17]: 2.62%
viability, T/C [18]: 1.9%
viability, T/C (second compound 1 µM, first compound 0.00316 µM): 24%
viability, T/C (second compound 1 µM, first compound 0.01 µM): 17.2%
viability, T/C [19]: 6.96%
viability, T/C [20]: 2.96%
viability, T/C [21]: 2.33%
viability, T/C [22]: 1.14%
viability, T/C (second compound 3.16 µM, first compound 0.00316 µM): 24.5%
viability, T/C (second compound 3.16 µM, first compound 0.01 µM): 16.7%
viability, T/C [23]: 7.28%
viability, T/C [24]: 4.75%
viability, T/C [25]: 2.45%
viability, T/C [26]: 0.84%
viability, T/C (second compound 10 µM, first compound 0.00316 µM): 22.6%
viability, T/C (second compound 10 µM, first compound 0.01 µM): 15.3%
viability, T/C [27]: 4.85%
viability, T/C [28]: 5.04%
viability, T/C [29]: 3.11%
viability, T/C [30]: 0.6%

IC50 (curve of compound): 0.00288 µM and 0.00231 µM
SMILES: CC(C)CC(NC(=O)C(Cc1ccccc1)NC(=O)c1cnccn1)B(O)O (stereo unspecified)
viability, T/C (compound 0.000949 µM): 106% and 104%
viability, T/C (compound 0.003 µM): 47.9% and 34.1%
viability, T/C (compound 0.00949 µM): 0.32% and 0.38%
viability, T/C (compound 0.03 µM): 0.21% and 1.51%
viability, T/C (compound 0.0949 µM): 0.12% and 2.95%
viability, T/C (compound 0.3 µM): 0.11% and 1.42%

IC50 (curve of compound): 0.0558 µM and 0.0435 µM
SMILES: C#Cc1c(F)ccc2cc(O)cc(-c3ncc4c(N5CC6CCC(C5)N6)nc(OCC56CCCN5CC(F)C6)nc4c3F)c12 (stereo unspecified)
viability, T/C (compound 0.0316 µM): 57% and 54.6%
viability, T/C (compound 0.1 µM): 43.1% and 39.1%
viability, T/C (compound 0.316 µM): 33.8% and 39.8%
viability, T/C (compound 1 µM): 29.4% and 31.3%
viability, T/C (compound 3.16 µM): 30.1% and 29.4%
viability, T/C (compound 10 µM): 22.2% and 18.5%

IC50 (curve of compound): 0.614 µM and 0.362 µM
SMILES: NC(=O)C(=Cn1cnc(-c2cc(C(F)(F)F)cc(C(F)(F)F)c2)n1)c1cncnc1
viability, T/C (compound 0.00949 µM): 97.3% and 100%
viability, T/C (compound 0.03 µM): 97% and 95.2%
viability, T/C (compound 0.0949 µM): 83.1% and 78.2%
viability, T/C (compound 0.3 µM): 63.3% and 48.4%
viability, T/C (compound 0.949 µM): 42.4% and 35.4%
viability, T/C (compound 3 µM): 21.7% and 10.8%

SMILES: Nc1ccccc1NC(=O)c1ccc(CNC(=O)OCc2cccnc2)cc1 + CN1CCN(c2cc(C(=O)Nc3cc4cc(-c5cnn(C)c5)ccc4cn3)ccn2)CC1
IC50 [1]: 2.1 µM
IC50 [2]: 1.14 µM
IC50 [3]: < 0.0316 µM
IC50 [4]: < 0.0316 µM
IC50 [5]: < 0.0316 µM
IC50 [6]: < 0.0316 µM
viability, T/C [7]: 95.7%
viability, T/C [8]: 92.8%
viability, T/C [9]: 89.9%
viability, T/C [10]: 74.2%
viability, T/C (second compound 0.0316 µM, first compound 3.16 µM): 36.7%
viability, T/C (second compound 0.0316 µM, first compound 10 µM): 10.9%
viability, T/C [11]: 73.5%
viability, T/C [12]: 76.7%
viability, T/C [13]: 60.5%
viability, T/C [14]: 57.6%
viability, T/C (second compound 0.1 µM, first compound 3.16 µM): 24.1%
viability, T/C (second compound 0.1 µM, first compound 10 µM): 2.49%
viability, T/C [15]: 1.31%
viability, T/C [16]: 1.59%
viability, T/C [17]: 0.45%
viability, T/C [18]: 2.31%
viability, T/C (second compound 0.316 µM, first compound 3.16 µM): 0.06%
viability, T/C (second compound 0.316 µM, first compound 10 µM): 0.18%
viability, T/C [19]: 0.11%
viability, T/C [20]: 0.84%
viability, T/C [21]: 0.11%
viability, T/C [22]: 0.08%
viability, T/C (second compound 1 µM, first compound 3.16 µM): 0.05%
viability, T/C (second compound 1 µM, first compound 10 µM): 0.07%
viability, T/C [23]: 0.13%
viability, T/C [24]: 0.33%
viability, T/C [25]: 0.2%
viability, T/C [26]: 0.11%
viability, T/C (second compound 3.16 µM, first compound 3.16 µM): 0.1%
viability, T/C (second compound 3.16 µM, first compound 10 µM): 0.77%
viability, T/C [27]: 0.13%
viability, T/C [28]: 0.68%
viability, T/C [29]: 0.22%
viability, T/C [30]: 0.29%
viability, T/C (second compound 10 µM, first compound 3.16 µM): 0.22%
viability, T/C (second compound 10 µM, first compound 10 µM): 0.18%

IC50 (curve of compound): 7.15 µM and 6.67 µM
SMILES: CC1(C)CCC(CN2CCN(c3ccc(C(=O)NS(=O)(=O)c4ccc(NCC5CCOCC5)c([N+](=O)[O-])c4)c(Oc4cnc5[nH]ccc5c4)c3)CC2)=C(c2ccc(Cl)cc2)C1
viability, T/C (compound 0.0316 µM): 101% and 99.6%
viability, T/C (compound 0.1 µM): 102% and 95.9%
viability, T/C (compound 0.316 µM): 113% and 106%
viability, T/C (compound 1 µM): 106% and 102%
viability, T/C (compound 3.16 µM): 119% and 111%
viability, T/C (compound 10 µM): 25.8% and 21.3%

IC50 (compound alone, run of 09/19/2023): 302 nM [middle of 12 runs]
SMILES: CNC(=O)c1ccc(Nc2nc(OC3CCCC3)c3c(-c4ccc5nc(C)oc5c4)c[nH]c3n2)c(OC)c1
viability, T/C (compound 0.0316 µM): 106% [middle of 12 runs]
viability, T/C (compound 0.1 µM): 104% [middle of 12 runs]
viability, T/C (compound 0.316 µM): 47.8% [middle of 12 runs]
viability, T/C (compound 1 µM): 30.7% [middle of 12 runs]
viability, T/C (compound 3.16 µM): 26.1% [middle of 12 runs]
viability, T/C (compound 10 µM): 28.5% [middle of 11 runs]

IC50 (curve of compound): > 10 µM
SMILES: COc1ccc([C@@H](O)c2cc(-c3ncnc4cc(N5CCOCC5)ccc34)c(F)cc2Cl)nn1
viability, T/C (compound 0.0316 µM): 105% and 114%
viability, T/C (compound 0.1 µM): 108% and 102%
viability, T/C (compound 0.316 µM): 95.4% and 102%
viability, T/C (compound 1 µM): 92% and 89.2%
viability, T/C (compound 3.16 µM): 82.7% and 77.8%
viability, T/C (compound 10 µM): 54.3% and 51%
